Key:
RAW264.7 macrophages = test: RAW264.7 macrophage NO assay (LPS-induced NO production, Griess reagent); format: cell-based
Procedure: (§1) After the pretreatment, the MTT (Sigma, M2128) reagent at a concentration of 0.5 mg/ml was further added thereto. After the cells were cultured in a 5% CO2 incubator for 4 hours, the supernatant was discarded, 150 μl of DMSO was added and was shaken for 30 minutes, and an ELISA micro plate reader (Bio Rad Laboratories Inc., California, USA, Model 680) was used to measure the absorbance at a wavelength of 540 nm. All the experimental values were calculated as an average value of three repeated experimental values of the cell protection rate for the control group, and an experiment of suppressing the NO production for each compound was carried out at a concentration in which no cytotoxicity was shown.
(§2) After the reaction, an ELISA micro plate reader (Bio Rad Laboratories Inc., California, USA, Model 680) was used to measure the absorbance at a wavelength of 540 nm. The suppression rate was calculated as a difference in amount of NO produced between the control group and the experimental group, and as shown in the following Table 7, Compounds 4, 5, 15, 16, 18, and the like of the present invention were excellent in the effect of suppressing the production of NO.

db/db mice [1] = test: Anti-diabetic effects for db/db mice (glycosylated hemoglobin); format: in vivo, C57BLKS/J-db/db mice
Procedure: (§3) 5-week-old male C57BLKS/J-db/db mice (Central Lab. Animal Inc.) were purchased and acclimatized for 2 weeks, and then used in this experiment. Samples were exactly taken from the compounds prepared in Examples 4 and 15 of the present invention (Compounds 5 and 16) according to the administration dose and put into Falcon tubes, a 0.5% methyl cellulose aqueous solution stored refrigerated was placed at room temperature to allow the excipients to be warmed at room temperature, 16 ml of each of the excipients was added to a 50 ml Falcon tube, and a vortex mixer was used to primarily mix the ingredients in a soft manner, and then a suspension was obtained and homogenized by treating the sample for 3 minutes using a homogenizer (30,000 rpm, CPT-1600E, Kinemtica, Switzerland), and then ultrasonically treated for 30 minutes. The sample thus prepared was administered through oral gavage using a disposable plastic syringe equipped with a sonde once daily for 42 days (6 weeks).
The glycosylated hemoglobin (HbA1c) was measured while the db/db mice were bred. The gyclosylated hemoglobin was measured at 2 days prior to group separation, 4 weeks after administration, and 6 weeks after administration, and was measured by fasting the mice for 4 hours on the measurement date, collecting blood from the caudal vein before each material was administered, and using a device for measuring glycosylated hemoglobin (SD A1cCare, SD Biosensor, Inc., Korea).

DIO mice = test: Anti-obesity effect for DIO mice (body weight); format: in vivo, C57BL/6 mice; conditions: Mus musculus, 672 h; 4 weeks, 150 mg/kg, oral gavage once daily
Procedure: Five-week-old female C57BL/6 mice (Narabio Co., Ltd.) were purchased and fed with only high-fat diet for at least 10 weeks to produce diet induced obesity ([…]) mice. Samples were exactly taken from Preparation Example 1 (glabridin) and the compounds of Examples of the present invention (Compounds 1 to 5, 7, 9, 11, 14 to 16, 21, and 23) according to the administration dose and put into Falcon tubes, 3 ml of a 0.5% methyl cellulose aqueous solution was added thereto and a vortex mixer was used to primarily mix the ingredients in a soft manner, and then a homogenizer (30,000 rpm, Ultra-Turrax® T10 Basic, IKA) was used to treat the sample for 3 minutes while 1.5 ml of a 0.5% methyl cellulose aqueous solution was added thereto. The sample thus prepared was administered through oral gavage using a disposable plastic syringe once daily for 28 days (4 weeks). The body weight was measured twice a week while the DIO mice were bred in this manner. Based on the data thus calculated, the anti-obesity effect (%) was calculated according to the equation defined as follows. Anti-Obesity Effect={(Body weight of control group)−(Body weight of experimental group)}/(Body weight of control group)×100

db/db mice [2] = test: Liver histology (H&E, perilipin antibody) of db/db mice after 6 weeks; format: in vivo, C57BLKS/J-db/db mice; conditions: administered for 6 weeks, compared with control group
Procedure: as §3
The mouse to which Compound 16 had been administered for 6 weeks in this experiment was finally sacrificed and autopsied to collect a liver, the liver was excised and each stained with hematoxylin and eosin (H&E) and perilipin antibody, the stained tissue was observed using a microscope, and the results are shown in FIGS. 2 to 5. […]

PTP1B = PTP1B (Homo sapiens (Human), UniProt P18031); test: Experiment of PTP1B inhibition (p-NPP dephosphorylation); format: biochemical; conditions: 2 mM p-NPP substrate, 30° C., 30 minutes
Chain of PTP1B (P18031 whole entry, species assumed): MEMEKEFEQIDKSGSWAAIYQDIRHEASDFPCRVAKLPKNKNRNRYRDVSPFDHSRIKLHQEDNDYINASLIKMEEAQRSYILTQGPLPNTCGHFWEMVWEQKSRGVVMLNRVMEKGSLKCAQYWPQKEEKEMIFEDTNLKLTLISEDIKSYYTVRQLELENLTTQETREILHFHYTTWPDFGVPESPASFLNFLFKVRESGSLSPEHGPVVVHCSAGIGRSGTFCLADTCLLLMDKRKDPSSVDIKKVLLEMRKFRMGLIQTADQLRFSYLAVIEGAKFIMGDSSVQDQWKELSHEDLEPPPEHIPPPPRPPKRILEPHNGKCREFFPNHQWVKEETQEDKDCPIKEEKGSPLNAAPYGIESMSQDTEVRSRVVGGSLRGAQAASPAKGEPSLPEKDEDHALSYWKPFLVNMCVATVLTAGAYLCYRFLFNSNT
Excerpt: With respect to PTP1B, the degrees of inhibition (IC50 The half maximal inhibitory concentration) of glabridin, and compounds of Preparation Example 2 (Compound 1), Example 2 (Compound 3), Example 3 (Compound 4), Example 4 (Compound 5), Example 13 (Compound 14), Example 14 (Compound 15), Example 15 (Compound 16), Example 17 (Compound 18), Example 18 (Compound 19) and Example 20 (Compound 21) were compared to each other. For this purpose, the degree of inhibition activity for PTP1B was investigated by using 2 mM p-nitrophenyl phosphate (p-NPP) as a substrate to measure the dephosphorylation degree. First, PTP1B diluted with distilled water was reacted with 2 mM p-nitrophenyl phosphate {p-NPP, 0.1 M NaCl, 1 mM EDTA, 50 mM citrate pH 6.0, and 1 mM dithiothreitol (DTT)} and Compound 1 at various concentrations at 30° C. for 30 minutes, and then the reaction was terminated with a 1 N-sodium hydroxide (NaOH) solution. The absorbance of the samples thus prepared was measured to confirm the inhibition degree (IC50: The half maximal inhibitory concentration) for PTP1B activity according to the concentration of Compound 1. Even for glabridin, Compound 3, Compound 4, Compound 5, Compound 14, Compound 15, Compound 16, Compound 18, Compound 19, and Compound 21, the same measurement was performed.

BV2 microglia cells = test: BV2 cell NO assay (LPS-induced NO production, Griess reagent); format: cell-based; conditions: Mus musculus, BV-2, LPS 1 μg/ml, 24 hours
Procedure: as §1, with “pretreatment, 0.5 mg/ml of” for “pretreatment,”, “reagent” for “reagent at a concentration of 0.5 mg/ml”, “incubator,” for “incubator for 4 hours,”
as §2, with “6 and FIG. 6,” for “7,”, “NO, and the effect is also about 5 times to about 9 times better than that of glabridin.” for “NO.”

Compound: CCCOc1ccc(C2COc3c(ccc4c3CCC(C)(C)O4)C2)c(O)c1 (stereo not drawn) [Compound 16, 3-(2-hydroxy-4-propoxyphenyl)-8,8-dimethyl-2,3,4,8,9,10-hexahydropyrano [2,3-f] chromene]
- IC50 (RAW264.7 macrophages; Mus musculus, RAW264.7, NO production, LPS 1 μg/ml, 24 hours): 4400 nM
- effect of suppressing the production of NO (RAW264.7 macrophages; RAW264.7 macrophages, in words): excellent
- HbA1c (%) 4 weeks (db/db mice [1]; 4 weeks after administration, 300 mg/kg oral once daily): 6.7%
- HbA1c (%) 6 weeks (db/db mice [1]; 6 weeks after administration, 300 mg/kg oral once daily): 6.2%
- HbA1c (%) Before administration (db/db mice [1]; before administration, 300 mg/kg group): 4.7%
- inhibition in vivo at 150 mg/kg (DIO mice): 7%
- liver tissue observation by microscope (db/db mice [2]): small and compact adipocytes
- IC50 (PTP1B): 1900 nM
- IC50 (BV2 microglia cells): 2300 nM

Source: US9783551B2, “Pyranochromenyl phenol derivative, and pharmaceutical composition for treating metabolic syndrome or inflammatory disease” (GLACEUM, INC., priority 2013, dated 2017)
